# Test results from patent US4681872A (priority 1985, dated 1987).
# Where two headings read alike, the source gives them in different places.
# Legend:
# [1] = system: Staph. epidermidis 3519 RARI; test: microbe, parasite or virus in culture; assay type: cell-based
# [2] = system: Providencia stuartii CMX 640; test: antimicrobial spectrum, agar dilution MIC; assay type: cell-based; conditions: BHI agar, 35°-37° C., 20-24 hours
# Staph. aureus ATCC 25923 = test: antimicrobial spectrum, agar dilution MIC; assay type: cell-based; conditions: 35°-37° C., 20-24 hours
# Staph. aureus CMX 739A = test: antimicrobial spectrum, agar dilution MIC; assay type: cell-based; conditions: BHI agar, 35°-37° C., 20-24 hours
# Staph. aureus CMX 730A = test: antimicrobial spectrum, agar dilution MIC; assay type: cell-based; conditions: BHI agar, 35°-37° C., 20-24 hours
# Staph. aureus CMX 705 = test: antimicrobial spectrum, agar dilution MIC; assay type: cell-based; conditions: 35°-37° C., 20-24 hours
# Staph. aureus 642A = test: antimicrobial spectrum, agar dilution MIC; assay type: cell-based; conditions: BHI agar, 35°-37° C., 20-24 hours
# Staph. aureus CYR 1162 = test: antimicrobial spectrum, agar dilution MIC; assay type: cell-based; conditions: 35°-37° C., 20-24 hours
# [3] = system: Staph. saprophyticus ATCC 15305; test: antimicrobial spectrum, agar dilution MIC; assay type: cell-based; conditions: 35°-37° C., 20-24 hours
# [4] = system: Strep. agalactiae CMX 633; test: antimicrobial spectrum, agar dilution MIC; assay type: cell-based; conditions: 35°-37° C., 20-24 hours
# [5] = system: Strep. pyogenes M79061-139; test: antimicrobial spectrum, agar dilution MIC; assay type: cell-based; conditions: 35°-37° C., 20-24 hours
# [6] = system: Strep. pyogenes M79061-140; test: antimicrobial spectrum, agar dilution MIC; assay type: cell-based; conditions: 35°-37° C., 20-24 hours
# [7] = system: Strep. pneumoniae CMX 635; test: antimicrobial spectrum, agar dilution MIC; assay type: cell-based; conditions: 35°-37° C., 20-24 hours
# Bact. vulgatus 792 = test: antimicrobial spectrum, agar dilution MIC; assay type: cell-based; conditions: BHI agar, 35°-37° C., 20-24 hours
# [8] = system: Bact. thetaiotamicron 3304; test: antimicrobial spectrum, agar dilution MIC; assay type: cell-based; conditions: BHI agar, 35°-37° C., 20-24 hours
# [9] = system: Cl. perfringens SFBC 2026; test: microbe, parasite or virus in culture; assay type: cell-based
# Staph. aureus = test: acute mouse protection test; assay type: in vivo, Swiss albino mice; conditions: for ED50: Staphylococcus aureus, 168 h
# Strep. pneumoniae = test: acute mouse protection test; assay type: in vivo, Swiss albino mice; conditions: mice, dosed 1 and 5 hours post-infection, observed 7 days; for ED50: Streptococcus pneumoniae, 168 h
# Strep. pyogenes = test: acute mouse protection test; assay type: in vivo, Swiss albino mice; conditions: mice, dosed 1 and 5 hours post-infection, observed 7 days; for ED50: Streptococcus pyogenes, 168 h
# Bact. fragilis UC-2 = conditions: BHI agar, 35°-37° C., 20-24 hours
# Staph. aureus A5177 = test: antimicrobial spectrum, agar dilution MIC
# [10] = system: Lactobacillus Casei ATCC 7469; test: antimicrobial spectrum, agar dilution MIC; conditions: BHI agar, 35°-37° C., 20-24 hours
# [11] = system: Strep. agalactiae CMX 508; test: antimicrobial spectrum, agar dilution MIC
# E. coli SS = test: antimicrobial spectrum, agar dilution MIC; conditions: BHI agar, 35°-37° C., 20-24 hours
# E. coli DC-2 = test: antimicrobial spectrum, agar dilution MIC
# E. coli H560 = test: antimicrobial spectrum, agar dilution MIC
# [12] = system: Ent. aerogenes ATCC 10348; test: antimicrobial spectrum, agar dilution MIC
# [13] = system: Pseudomonas aeruginosa K799/WT; test: antimicrobial spectrum, agar dilution MIC; conditions: BHI agar, 35°-37° C., 20-24 hours
# [14] = system: Pseudomonas aeruginosa K799/61; test: antimicrobial spectrum, agar dilution MIC
# Staph. aureus A-5278 = test: antimicrobial spectrum, agar dilution MIC
# Enterococcus CMX 736F = test: antimicrobial spectrum, agar dilution MIC
# Enterococcus CMX 729G = test: antimicrobial spectrum, agar dilution MIC
# Enterococcus GYR 1164 = test: antimicrobial spectrum, agar dilution MIC
# [15] = system: Strep. pneumoniae 78-008107; test: antimicrobial spectrum, agar dilution MIC
# [16] = system: Bact. thetaiotamicron 106; test: antimicrobial spectrum, agar dilution MIC
# [17] = system: Propionibacterium acnes 132; test: antimicrobial spectrum, agar dilution MIC
# [18] = system: Peptostrep. anaerobius ATCC 27337; test: antimicrobial spectrum, agar dilution MIC
compound,measurement,setting,value
"CCC1OC(=O)C(C)C(OC2CC(C)(OC)CC(C)O2)C(C)C(OC2OC(C)CC(N(C)C)C2O)C(C)(O)CC(C)C(=O)C(C)C2OC(=O)OC12C (stereo not drawn) [4""-deoxyerythromycin A 11,12-carbonate]",MIC,"[1]; Staph. epidermidis 3519 RARI, BHI agar, 35°-37° C., 20-24 hours",.1 mg/L
same,MIC,[2],100 mg/L
same,MIC,Staph. aureus ATCC 25923; BHI agar,.03 mg/L
same,MIC,Staph. aureus CMX 739A,.03 mg/L
same,MIC,Staph. aureus CMX 730A,.03 mg/L
same,MIC,Staph. aureus CMX 705; BHI agar,.03 mg/L
same,MIC,Staph. aureus 642A,.06 mg/L
same,MIC,Staph. aureus CYR 1162; BHI agar,.06 mg/L
same,MIC,[3]; BHI agar,.03 mg/L
same,MIC,[4]; BHI agar,.015 mg/L
same,MIC,[5]; BHI agar,.015 mg/L
same,MIC,[6]; BHI agar,.001 mg/L
same,MIC,[7]; BHI agar,.008 mg/L
same,MIC,Bact. vulgatus 792,.2 mg/L
same,MIC,[8],3.1 mg/L
same,MIC,"[9]; Cl. perfringens SFBC 2026, BHI agar, 35°-37° C., 20-24 hours",.4 mg/L
same,ED-50,"Staph. aureus; Staph. aureus, mice, oral, dosed 1 and 5 hours post-infection, observed 7 days",31.4 mg/kg
same,ED-50,"Staph. aureus; Staph. aureus, mice, subcutaneous, dosed 1 and 5 hours post-infection, observed 7 days",36.3 mg/kg
same,ED-50,Strep. pneumoniae; oral,200.0 mg/kg
same,ED-50,Strep. pneumoniae; subcutaneous,44.1 mg/kg
same,ED-50,Strep. pyogenes; oral,8.9 mg/kg
same,ED-50,Strep. pyogenes; subcutaneous,4.0 mg/kg
same,MIC,Bact. fragilis UC-2,1.6 mg/L
same,MIC,"Staph. aureus A5177; Staph. aureus A5177, BHI agar, 35°-37° C., 20-24 hours",.39 mg/L
same,MIC,[10],.01 mg/L
same,MIC,"[11]; Strep. agalactiae CMX 508, BHI agar, 35°-37° C., 20-24 hours",.02 mg/L
same,MIC,E. coli SS,.2 mg/L
same,MIC,"E. coli DC-2; E. coli DC-2, BHI agar, 35°-37° C., 20-24 hours",25 mg/L
same,MIC,"E. coli H560; E. coli H560, BHI agar, 35°-37° C., 20-24 hours",6.2 mg/L
same,MIC,"[12]; Ent. aerogenes ATCC 10348, BHI agar, 35°-37° C., 20-24 hours",50 mg/L
same,MIC,[13],100 mg/L
same,MIC,"[14]; Pseudomonas aeruginosa K799/61, BHI agar, 35°-37° C., 20-24 hours",1.56 mg/L
same,MIC,"Staph. aureus A-5278; Staph. aureus A-5278, BHI agar, 35°-37° C., 20-24 hours",128 mg/L
same,MIC,"Enterococcus CMX 736F; Enterococcus CMX 736F, BHI agar, 35°-37° C., 20-24 hours",.12 mg/L
same,MIC,"Enterococcus CMX 729G; Enterococcus CMX 729G, BHI agar, 35°-37° C., 20-24 hours",.12 mg/L
same,MIC,"Enterococcus GYR 1164; Enterococcus GYR 1164, BHI agar, 35°-37° C., 20-24 hours",.12 mg/L
same,MIC,"[15]; Strep. pneumoniae 78-008107, BHI agar, 35°-37° C., 20-24 hours",32 mg/L
same,MIC,"[16]; Bact. thetaiotamicron 106, BHI agar, 35°-37° C., 20-24 hours",3.1 mg/L
same,MIC,"[17]; Propionibacterium acnes 132, BHI agar, 35°-37° C., 20-24 hours",.05 mg/L
same,MIC,"[18]; Peptostrep. anaerobius ATCC 27337, BHI agar, 35°-37° C., 20-24 hours",.05 mg/L
"CC[C@H]1OC(=O)[C@H](C)[C@@H](O[C@H]2C[C@@](C)(OC)[C@@H](O)[C@H](C)O2)[C@H](C)[C@@H](O[C@@H]2O[C@H](C)C[C@H](N(C)C)[C@H]2O)[C@](C)(O)C[C@@H](C)C(=O)[C@H](C)[C@@H](O)[C@]1(C)O [Erythromycin A, reference compound]",MIC,"[1]; Staphylococcus epidermidis, 3519RARI",0.39 mg/L
same,MIC,"Staph. aureus ATCC 25923; Staphylococcus aureus, ATCC25923, BHI agar, read-out: MIC",0.06 mg/L
same,MIC,"Staph. aureus CMX 739A; Staphylococcus aureus, CMX739A, read-out: MIC",0.06 mg/L
same,MIC,"Staph. aureus CMX 730A; Staphylococcus aureus, CMX730A, read-out: MIC",0.06 mg/L
same,MIC,"Staph. aureus CMX 705; Staphylococcus aureus, CMX705, BHI agar, read-out: MIC",0.06 mg/L
same,MIC,"Staph. aureus 642A; Staphylococcus aureus, read-out: MIC",0.12 mg/L
same,MIC,"Staph. aureus CYR 1162; Staphylococcus aureus, CYR1162, BHI agar, read-out: MIC",0.06 mg/L
same,MIC,"[3]; Staphylococcus saprophyticus, ATCC15305, BHI agar, read-out: MIC",0.06 mg/L
same,MIC,"[4]; Streptococcus agalactiae, CMX633, BHI agar, read-out: MIC",0.015 mg/L
same,MIC,"[5]; Streptococcus pyogenes, M79061139, BHI agar, read-out: MIC",0.015 mg/L
same,MIC,"[6]; Streptococcus pyogenes, M79061140, BHI agar, read-out: MIC",0.002 mg/L
same,MIC,"[7]; Streptococcus pneumoniae, CMX635, BHI agar, read-out: MIC",0.008 mg/L
same,MIC,"Bact. vulgatus 792; Phocaeicola vulgatus, read-out: MIC",0.4 mg/L
same,MIC,[8]; read-out: MIC,6.3 mg/L
same,MIC,"[9]; Clostridium perfringens, SFBC2026",1.6 mg/L
same,ED50,"Staph. aureus; Staph. aureus, mice, oral, dosed 1 and 5 hours post-infection, observed 7 days, read-out: ED-50",141 mg/kg
same,ED50,Staph. aureus; sc,21.4 mg/kg
same,ED50,Strep. pneumoniae; oral,113 mg/kg
same,ED50,"Strep. pneumoniae; sc, subcutaneous",50 mg/kg
same,ED50,Strep. pyogenes; oral,50 mg/kg
same,ED50,"Strep. pyogenes; sc, subcutaneous",3.5 mg/kg
same,MIC,"Staph. aureus A5177; Staphylococcus aureus, A5177",1.56 mg/L
same,MIC,"[11]; Streptococcus agalactiae, CMX508",0.05 mg/L
same,MIC,"E. coli DC-2; Escherichia coli, DC2",50 mg/L
same,MIC,"E. coli H560; Escherichia coli, H560",12.5 mg/L
same,MIC,"[12]; Klebsiella aerogenes, ATCC10348",100 mg/L
same,MIC,"[14]; Pseudomonas aeruginosa, K799/61",3.1 mg/L
same,MIC,"Staph. aureus A-5278; Staphylococcus aureus, A5278",128 mg/L
same,MIC,"Enterococcus CMX 736F; Enterococcus, CMX736F",0.1 mg/L
same,MIC,"Enterococcus CMX 729G; Enterococcus, CMX729G",0.1 mg/L
same,MIC,"Enterococcus GYR 1164; Enterococcus, GYR1164",2 mg/L
same,MIC,"[15]; Streptococcus pneumoniae, 78008107",128 mg/L
same,MIC,[16],3.1 mg/L
same,MIC,"[17]; Cutibacterium acnes, 132",0.05 mg/L
same,MIC,[18],0.05 mg/L
